From patent US8658777B2, “Activated protease indicator” (The University of Tokyo, priority 2007, dated 2014)
*1 amine or outer side, *2 acyl side, *3 side chain or, on linkers, in order; H or OH if unused. Where a SMILES comes first, the peptide text is derived from it. Bridges are numbered along the chain shown (N, C = ends). Roman numbers before positions name the chains, in order. [ ]: non-standard residue; d: D form. The star is where a group is joined. Actinocin(9to1) = Cc1c2oc3c(C)ccc(C(=O)[*:1])c3nc-2c(C(=O)[*:2])c(N)c1=O; NMeV = CN[C@H](C(=O)O)C(C)C; Cbz = O=C(OCc1ccccc1)*; Sar = CNCC(=O)O; CH2F = FC*

How the values were obtained:
caspase-3 [1] = experiment: Real-time in vitro analysis of caspase-3 activity in HeLa cells expressing cyclic Fluc; format: cell-based
Experimental: (§1) [FIG. 9] Real-time in vitro analysis of caspase-3 activity. Forty eight hours after HeLa cells transfected with pcFluc-DEVD were treated with different concentrations of STS and then the bioluminescence intensities were measured every 5 minutes. The indicated time represents the time after the addition of each agent.
as §1, with “10] Results of the measurement with actinomycin D (ActD) in the same manner as in FIG. 9.” for “9]”, “capsase-3” for “caspase-3”, “actinomycin D (ActD)” for “STS”
pcFluc-DEVD was transfected in the HeLa cells in a 10-cm Petri dish for 24 hours. The cells were scraped off and divided in five 3-cm Petri dishes, for culturing for 24 hours. The culture medium was replaced with the Hank's balanced salt solution (Gibco) containing 500 μM D-luciferin and 5% FBS. After the five 3-cm Petri dishes were mounted on a photon counter (KRONOS, ATTO, Tokyo, Japan), the cells were stimulated with STS or actinomycin D (Act D, Sigma). The luminescence intensity in each of the Petri dishes was assayed for a cumulative time period of 45 seconds at an interval of 5 minutes.
It is known that the time required for caspase-3 activation in response to extracellular stimuli varies with the type of chemical compounds and its concentration. In order to decide upon a screening time, it is crucial to know when the activity of caspase-3 gives a maximum response after stimulation with such apoptotic chemical regents. […] First, the cyclic Fluc indicator was transiently expressed in HeLa cells; the luminescence intensity upon stimulation with STS at various concentrations was monitored every five minutes in a time course (FIG. 9). […] The rate of increase in the luminescence intensity depended on the STS concentration. […] The decrease in the luminescence signal intensity indicates attenuation of active luciferase by proteolysis in the HeLa cells.

caspase-3 [2] = experiment: In vitro assay of firefly luciferase in COS-7 cells transfected with pcFluc-DEVD; format: cell-based
Experimental: [FIG. 5] Quantitative analysis of the Fluc activity with STS and Z-VAD-FMK. After transfection of COS-7 cells with pcFluc-DEVD for 48 hours, the cells were treated with 100 μM Z-VAD-FMK or vehicle (0.1% DMSO) for an hour and then stimulated with various concentrations of STS for two hours. A relative luminescence unit (RLU) was defined as follows: the luminescence intensity from the right side (LumR) was divided by that from the left side (LumL), as RLU (%)=LumR/LumL.
(§2) pcFluc-DEVD and pRL-TK were transfected in the COS-7 cells and the HeLa cells for 48 hours. These cells were treated with STS or a caspase inhibitor Z-VAD-FMK (Sigma) to assay the luciferase activity according to the report (Ozawa, T. et al. (2001) Anal. Chem. 73, 2516-21; Kanno, A. et al. (2006) Anal. Chem. 78, 556-60). The assay time period of Fluc and Renilla reniformis luciferase (Rluc) was 20 seconds. The luminescence from Fluc (LF) was normalized to the luminescence from Rluc (LR), and the resulting value was defined as relative luminescence unit (RLU; RLU=LF/LR). All the assays were done in various wells in a culture plate triplicately, using a luminometer of MiniLuraat LB9506 (Berthold GmbH & Co. KG, Wildbad, Germany). The results are shown as the mean ratio of the RLU value to the RLU value of cells treated with a solvent (0.1% DMSO), together with the standard deviations.
In the Example, continuously, it was examined whether the activity of the cyclic Fluc was restored after stimulation with STS. COS-7 cells transfected with pcFluc-DEVD were stimulated with STS or a caspase inhibitor Z-VAD-FMK, or with both STS and Z-VAD-FMK. The cells were harvested and their lysates were mixed with a Fluc substrate, D-luciferin. […] The luminescence signals in the presence of Z-VAD-FMK were smaller than the signals that originated from the cells in the absence of STS and Z-VAD-FMK.

caspase-3 [3] = experiment: Fluc activity in caspase-3-deficient MCF-7 cells transfected with pcFluc-DEVD with or without pCaspase-3; format: cell-based
Experimental: Analysis of the Flue activity in the caspase-3-deficient MCF-7 cells. MCF-7 cells were transfected with only pcFluc-DEVD (left) or with both pcFluc-DEVD and pCaspase-3 (right). The cells were incubated for 48 hours and the luminescence intensities were evaluated at the indicated times after stimulation with 100 nM STS. A relative luminescence unit (RLU) was defined as follows: the luminescence intensity from the right side (LumR) was divided by that from the left side (LumL), as RLU (%)=LumR/LumL.

caspase-3 [4] = experiment: Western blot analysis of cyclic and linear Fluc in COS-7 cells transfected with pcFluc-DEVD; format: cell-based; conditions: indicated concentrations of STS for two hours, Western blot (FIG. 4)
Experimental: Western blot analysis of Fluc in the circular form and in the linear form. COS-7 cells transfected with pcFluc-DEVD for 48 hours were treated with the indicated concentrations of STS for two hours and harvested. The sample was electrophoresed, transferred on a nitrocellulose membrane and stained with a specific antibody.
pcFluc-DEVD was transfected in the COS-7 cells for 48 hours. The cells were stimulated with staurosporine (STS; Sigma, St. Louise, Mo.) and then disrupted in a lysis buffer (1% SDS, 10% glycerol, 10% 2-mercaptoethanol, 0.001% Bromophenol Blue, 50 mM Tris/HCl, pH 6.8). The sample was electrophoresed with 10% SDS polyacrylamide gel, which was then transferred on a nitrocellulose membrane (Hybond-ECL, GE Healthcare, Buckinghamshire, England). Fluc was detected with a polyclonal anti-luciferase antibody (Promega); the immunoreactivity was evaluated, using horseradish peroxidase (HRP) conjugated to an anti-goat IgG antibody (Promega). The HRP activity was visualized, using an ECL advance Western blotting detection kit (GE Healthcare) with LAS-1000 plus image analyzer (Fuji Film Co., Tokyo, Japan).
To assess whether the fusion protein expressed by pcFluc-DEVD produces cyclic Fluc by protein splicing, herein, pcFluc-DEVD was transfected in COS-7 cells and chimera proteins were transiently expressed for 48 hours. The spliced products were examined by Western blot (FIG. 3). […]

caspase-3 [5] = experiment: In vivo imaging of caspase-3 activity in living mice implanted with HeLa cells expressing cyclic Fluc; design: species or system BALB/c-nude mouse
From the text: [FIG. 11] In vivo luminescence assay of mice carrying transiently transfected HeLa cells. The mice were subcutaneously implanted with HeLa cells expressing cyclic Fluc (right side) and full-length Fluc (left side). Images of the mice were taken at the indicated times after intraperitoneal injection of STS. A representative of three mice is shown.
[FIG. 12] Time-dependent changes in the photon count from the implanted site in FIG. 11. The relative luminescence unit (RLU) is shown on the longitudinal axis, where RLU=LumR/LumL provided that luminescence intensity from the right side (LumR) is divided with the luminescence intensity from the left side (LumL), as shown in (A). A relative luminescence unit (RLU) was defined as follows: the luminescence intensity from the right side (LumR) was divided by that from the left side (LumL), as RLU (%)=LumR/LumL.
pX8luc or pcFluc-DEVD was transfected in HeLa cells for 48 hours. The cells were harvested and suspended in a phosphate buffered saline (PBS), from which 1.0×10^6 cells were transplanted in two different dorsal positions of a BALB/c-nude mouse (female, five-week-old, body weight of about 17 to 20 g). After the cell transplantation, STS dissolved in DMSO was intraperitoneally injected. Immediately thereafter, a PBS buffer containing D-luciferin (600 mg/kg body weight) was intraperitoneally injected, to assay the luminescence from the mouse, using a CCD camera (IVIS200 system, Xenogen, Alameda, Calif.). Photons emitted from the transplanted cells were counted and cumulatively recorded over one minute. Image analysis was done, using the software LIVING IMAGE (Xenogen). So as to quantitatively determine the assayed luminescence, a region of interest was extracted from the cell-transplanted regions, to evaluate the luminescence intensity (photon·second^−1·cm^−2). […]
To quantitatively evaluate the effect of STS on caspase-3 activity, a relative luminescence unit (RLU) was defined as follows; the luminescence intensity from the right side (LumR) was divided by that from the left side (LumL), as RLU (%)=LumR/LumL. […]

caspase-3 [6] = experiment: In vitro assay of firefly luciferase in HeLa cells transfected with pcFluc-DEVD; format: cell-based
Experimental: (§3) [FIG. 7] Quantitative analysis of the Flue activity with STS. After transfection of HeLa cells with pcFluc-DEVD for 48 hours, the cells were treated with various concentrations of STS for two hours. A relative luminescence unit (RLU) was defined as follows: the luminescence intensity from the right side (LumR) was divided by that from the left side (LumL), as RLU (%)=LumR/LumL.
as §3, with “8]” for “7]”, “Z-VAD-FMK. The” for “STS. After transfection of”, “cells were transfected” for “cells”, “hours,” for “hours, the cells were”, “treated with different concentrations of Z-VAD-FMK or vehicle (0.1% DMSO), and stimulated” for “treated”
as §2
To show the feasibility of cyclic Fluc for characterizing apoptotic regents, the sensitivity of cyclic Fluc was examined, using HeLa cells. The cells were transfected with pcFluc-DEVD, for transient expression of chimera proteins, which were stimulated with different concentrations of STS for two hours. […]

[7] = STS 100 μg/kg of body weight i.p.

For Cc1c2oc3c(C)ccc(C(=O)N[C@@H]4C(=O)N[C@H](C(C)C)C(=O)N5CCC[C@H]5C(=O)N(C)CC(=O)N(C)[C@@H](C(C)C)C(=O)O[C@@H]4C)c3nc-2c(C(=O)N[C@@H]2C(=O)N[C@H](C(C)C)C(=O)N3CCC[C@H]3C(=O)N(C)CC(=O)N(C)[C@@H](C(C)C)C(=O)O[C@@H]2C)c(N)c1=O [ActD, actinomycin D] (I: T[dV]P[Sar][NMeV] / II: T[dV]P[Sar][NMeV]; ester I:1-I:C, II:1-II:C; linker I:N-II:N via Actinocin(9to1)), the “time period over which the luminescence signal intensity increased” value (caspase-3 [1]; ActD, then gradually decreased (FIG. 10)) was 25 to 120 min.

CN[C@@H]1C[C@H]2O[C@@](C)([C@@H]1OC)n1c3ccccc3c3c4c(c5c6ccccc6n2c5c31)C(=O)NC4 [STS, staurosporine] was tested, and the luminescence signals (caspase-3 [2]; COS-7 cells, various concentrations of STS for two hours (FIG. 5)) was “increased with increase in concentrations of the STS”, the “luminescence from the cells” value (caspase-3 [3]; MCF-7 cells cotransfected with pcFluc-DEVD and pCaspase-3, stimulation with STS) was “significantly increased” and the “change in the bioluminescence intensity” value (caspase-3 [3]; MCF-7 cells transfected with pcFluc-DEVD only, 1 μM STS for two hours) was “little change”. The “Formation of the linear form of Fluc” value (caspase-3 [4]) was “dependent on the concentration of STS”, the “luminescence signal from the left side (HeLa cells expressing full-length Fluc, control)” value (caspase-3 [5]; [7]) was “no significant change” and the “luminescence signal intensity from the right side (implanted cyclic Fluc cells)” value (caspase-3 [5]; [7]) was “significant increase”. The “maximum RLU ratio in comparison to the RLU before STS stimulation” value (caspase-3 [5]; two hours after the intraperitoneal STS injection, RLU=LumR/LumL (FIG. 12)) was 300 to 400%, the “concentration range inducing an increase in the bioluminescence intensity” value (caspase-3 [6]; HeLa cells, STS for two hours (FIG. 7)) was 10 to 1000 nM and the “time at which luminescence signals reach a maximum after stimulation” value (caspase-3 [1]; STS at various concentrations (FIG. 9)) was 100 min. The “duration of initial slow increase in the luminescence signals” value (caspase-3 [1]; STS at various concentrations, measured every five minutes (FIG. 9)) was 25 min.

With COC(=O)C[C@H](NC(=O)[C@H](C)NC(=O)[C@@H](NC(=O)OCc1ccccc1)C(C)C)C(=O)CF [Z-VAD-FMK] (Cbz-Val-Ala-Asp(OMe)-CH2F) the “luminescence signal relative to signals from vehicle-treated cells” value (caspase-3 [2]; COS-7 cells treated with 100 μM Z-VAD-FMK (FIG. 5)) was 50%, the luminescence (caspase-3 [2]; COS-7 cells, 100 μM Z-VAD-FMK, in the presence or absence of 1 μM STS) was “no increase in luminescence” and the “basal caspase-3 activities” value (caspase-3 [2]; COS-7 cells, 100 μM Z-VAD-FMK, no STS) was “completely inhibited”. The “concentrations at which inhibitory effect on the cleavage of the cyclic Fluc was observed” value (caspase-3 [6]; HeLa cells stimulated with STS for two hours (FIG. 8)) was “higher than 10 μM” and the “cleavage of the cyclic Fluc” value (caspase-3 [6]; HeLa cells, 100 μM Z-VAD-FMK, STS stimulation) was “completely suppressed”.
